The results in this text go back to ChEMBL document CHEMBL6134868, “Novel Aryl Sulfonium Modification on Vancomycin to Tackle MRSA and VRE In Vitro and In Vivo through Dual Enhanced Cell-Wall and Membrane Inhibition” (J Med Chem, 2025).

Values after ≈ are worked out from the molar mass of the structure shown. Active and inactive are the calls of the source. No cut-off for these calls is given here.

One series relates to Klebsiella pneumoniae. The series is described as follows: Antibacterial activity against Klebsiella pneumoniae KP-1 incubated for 16 to 24 hrs by broth microdilution assay. Type of series: functional. The conditions noted are these: time 16-24 hrs.
Series [1] relates to Acinetobacter baumannii. The series can be described thus: Antibacterial activity against Acinetobacter baumannii ATCC19606 incubated for 16 to 24 hrs by broth microdilution assay. Type of series: functional. Particulars: time 16-24 hrs.
The nature of series [2]: Protein binding in plasma (unknown origin). The format is ADME, cell-free. The conditions noted are these: read-out: PPB (converted).
Series [3] is described as follows: Hemolytic activity against rat erythrocytes at 100 ug/ml incubated for 1 hr by absorbance based assay. The format is toxicity, cell-based, Erythrocyte. The conditions noted are these: erythrocytes, at 100 µg/mL, read-out: Activity.
Series [4] concerns Enterococcus faecium. The series can be described thus: Antibacterial activity against vancomycin-resistant Enterococcus faecium Efm-HS-vb02 harboring VanB phenotype incubated for 16 to 24 hrs by broth microdilution assay. The format is functional. Particulars: time 16-24 hrs.
Series [5] concerns Acinetobacter baumannii. The series can be described thus: Antibacterial activity against carbapenem-resistant Acinetobacter baumannii CRAB-1 clinical isolate incubated for 16 to 24 hrs by broth microdilution assay. The format is functional. Particulars: time 16-24 hrs.
For another series, the system named is Escherichia coli. The series is described as follows: Antibacterial activity against Escherichia coli AB1157 incubated for 16 to 24 hrs by broth microdilution assay. The format is functional. The conditions noted are these: time 16-24 hrs.
The test system of series [6] is Enterococcus faecium. The series is described as follows: Antibacterial activity against vancomycin-resistant Enterococcus faecium Efm-HS-08257 harboring VanM phenotype incubated for 16 to 24 hrs by broth microdilution assay. The format is functional. Particulars: time 16-24 hrs.
A further series has as its system Pseudomonas aeruginosa. The series can be described thus: Antibacterial activity against Pseudomonas aeruginosa PAO1 incubated for 16 to 24 hrs by broth microdilution assay. The conditions noted are these: time 16-24 hrs. The format is functional.
Series [7] has as its system Staphylococcus aureus. The series can be described thus: Antibacterial activity against methicillin-resistant Staphylococcus aureus USA300 LAC infected in female BALB/c mouse assessed as animal survival rate at 7 mg/kg, iv measured for 7 days consecutively relative to control. Type of series: functional. The conditions noted are these: time 7.0 day.
Series [8] has as its system Enterococcus faecium. The series can be described thus: Antibacterial activity against vancomycin-resistant Enterococcus faecium Efm-HS-vb01 harboring VanB phenotype incubated for 16 to 24 hrs by broth microdilution assay. Type of series: functional. The conditions noted are these: time 16-24 hrs.
The subject of series [9] is Enterococcus faecium. The series is described as follows: Antibacterial activity against vancomycin-resistant Enterococcus faecium SC-2022-D2-059 harboring VanA phenotype infected in ICR mouse assessed as animal survival rate at 20 mg/kg, iv measured for 7 days relative to control. Particulars: SC-2022-D2-059, 168 h, time 7 day. The format is functional.
Series [10] has as its system Enterococcus faecium. The series can be described thus: Antibacterial activity against vancomycin-resistant Enterococcus faecium SC-2022-D2-059 harboring VanA phenotype incubated for 16 to 24 hrs by broth microdilution assay. Type of series: functional. The conditions noted are these: time 16-24 hrs.
Series [11] relates to Staphylococcus aureus. The series is described as follows: Antibacterial activity against vancomycin-intermediate Staphylococcus aureus Mu50 incubated for 16 to 24 hrs by broth microdilution assay. Type of series: functional. The conditions noted are these: time 16-24 hrs.
Series [12] concerns Enterococcus faecium. The series can be described thus: Antibacterial activity against vancomycin-resistant Enterococcus faecium Efm-HS-0649 harboring VanA phenotype incubated for 16 to 24 hrs by broth microdilution assay. Type of series: functional. The conditions noted are these: time 16-24 hrs.
Series [13] deals with Staphylococcus aureus. The series can be described thus: Antibacterial activity against methicillin-resistant Staphylococcus aureus USA300 LAC infected in mouse model. The format is functional.
A short description of series [14]: Half life in CD-1 mouse at 5 mg/kg, iv measured for 0.05 to 24 hrs by UPLC analysis. The format is ADME, organism-based. Particulars: in vivo, time 0.05-24 hrs.
Series [15] can be described thus: AUClast in CD-1 mouse at 5 mg/kg, iv measured for 0.05 to 24 hrs by UPLC analysis. Particulars: in vivo, time 0.05-24 hrs. The format is ADME, organism-based.
Series [16] in a line: Clearance in CD-1 mouse at 5 mg/kg, iv measured for 0.05 to 24 hrs by UPLC analysis. Type of series: ADME, organism-based. Particulars: in vivo, time 0.05-24 hrs.
The nature of series [17]: AUC (infinity) in CD-1 mouse at 5 mg/kg, iv measured for 0.05 to 24 hrs by UPLC analysis. The format is ADME, organism-based. The conditions noted are these: in vivo, time 0.05-24 hrs.
A short description of series [18]: MRT (infinity) in CD-1 mouse at 5 mg/kg, iv measured for 0.05 to 24 hrs by UPLC analysis. Type of series: ADME, organism-based. The conditions noted are these: in vivo, time 0.05-24 hrs.
In series [19] the test system is Staphylococcus aureus. The series can be described thus: Antibacterial activity against vancomycin-intermediate Staphylococcus aureus XN108 infected in CD-1 mouse model assessed as animal survival rate at 7 mg/kg, iv measured for 15 days relative to control. Particulars: XN108, 360 h, time 15 day. The format is functional.
The test system of series [20] is Staphylococcus aureus. The series can be described thus: Antibacterial activity against methicillin-resistant Staphylococcus aureus USA300 LAC incubated for 16 to 24 hrs by broth microdilution assay. Type of series: functional. The conditions noted are these: time 16-24 hrs.
The nature of series [21]: Volume of distribution at steady state in CD-1 mouse at 5 mg/kg, iv measured for 0.05 to 24 hrs by UPLC analysis. The format is ADME, organism-based. Particulars: in vivo, time 0.05-24 hrs, read-out: Vdss.
For series [22], the system named is Staphylococcus aureus. The series can be described thus: Antibacterial activity against methicillin-resistant Staphylococcus aureus […] infected in CD-1 mouse model assessed as animal survival rate at 7 mg/kg, iv measured for 15 days relative to control. Type of series: functional. The conditions noted are these: 360 h, time 15 day.

Turning to `CN[C@H](CC(C)C)C(=O)N[C@H]1C(=O)N[C@@H](CC(N)=O)C(=O)N[C@H]2C(=O)N[C@H]3C(=O)N[C@H](C(=O)N[C@H](C(=O)O)c4cc(O)cc(O)c4-c4cc3ccc4O)[C@H](O)c3ccc(c(Cl)c3)Oc3cc2cc(c3O[C@@H]2O[C@H](CO)[C@@H](O)[C@H](O)[C@H]2O[C@H]2C[C@](C)(N)[C@H](O)[C@H](C)O2)Oc2ccc(cc2Cl)[C@H]1O` [VANCOMYCIN], the minimum inhibitory concentration (MIC) in the series on Klebsiella pneumoniae was more than 128 µg/mL; with Acinetobacter baumannii [1], more than 128 µg/mL; against Enterococcus faecium [4] it was 16 µg/mL (≈ 11 µM); with Acinetobacter baumannii [5], more than 128 µg/mL; against Escherichia coli it was more than 128 µg/mL; with Enterococcus faecium [6] it was more than 128 µg/mL. Further, the MIC in the series on Pseudomonas aeruginosa is more than 128 µg/mL; in the series with Enterococcus faecium [8], more than 128 µg/mL; in the series on Enterococcus faecium [10] it was not below 128 µg/mL; against Staphylococcus aureus [11] it was 8 µg/mL (≈ 5.52 µM); against Enterococcus faecium [12], more than 128 µg/mL. Further, the fraction unbound in series [2] is 0.9. Moreover, in [3], the hemolysis at 1 h, 100 ug/ml was approximately 6%. The result in the series with Staphylococcus aureus [7] was inactive. Moreover, the survival at 20 mg/kg in the series with Enterococcus faecium [9] worked out at 0%.

As for `CCCCCCCCCCNCCN[C@@]1(C)C[C@H](O[C@H]2[C@H](Oc3c4cc5cc3Oc3ccc(cc3Cl)[C@@H](O)[C@@H](NC(=O)[C@@H](CC(C)C)NC)C(=O)N[C@@H](CC(N)=O)C(=O)N[C@H]5C(=O)N[C@H]3C(=O)N[C@H](C(=O)N[C@H](C(=O)O)c5cc(O)c(CNCP(=O)(O)O)c(O)c5-c5cc3ccc5O)[C@H](O)c3ccc(c(Cl)c3)O4)O[C@H](CO)[C@@H](O)[C@@H]2O)O[C@@H](C)[C@H]1O` [TELAVANCIN], the fraction unbound in series [2] was 0.1.

In the case of `CN[C@H](CC(C)C)C(=O)N[C@H]1C(=O)N[C@@H](CC(N)=O)C(=O)N[C@H]2C(=O)N[C@H]3C(=O)N[C@H](C(=O)N[C@H](C(=O)O)c4cc(O)cc(O)c4-c4cc3ccc4O)[C@H](O[C@H]3C[C@](C)(N)[C@@H](O)[C@H](C)O3)c3ccc(c(Cl)c3)Oc3cc2cc(c3O[C@@H]2O[C@H](CO)[C@@H](O)[C@H](O)[C@H]2O[C@H]2C[C@](C)(NCc3ccc(-c4ccc(Cl)cc4)cc3)[C@@H](O)[C@H](C)O2)Oc2ccc(cc2Cl)[C@H]1O` [ORITAVANCIN], in series [2], the fraction unbound was 0.14.

On to `CN[C@H]1C(=O)N[C@@H]2Cc3ccc(cc3)Oc3cc4cc(c3O[C@@H]3O[C@H](C(=O)O)[C@@H](O)[C@H](O)[C@H]3NC(=O)CCCCCCCCC(C)C)Oc3ccc(cc3Cl)[C@@H](O)[C@@H]3NC(=O)[C@H](NC(=O)[C@@H]4NC(=O)[C@@H](NC2=O)c2cc(cc(O)c2Cl)Oc2cc1ccc2O)c1ccc(O)c(c1)-c1c(OC2OC(CO)C(O)C(O)C2O)cc(O)cc1[C@@H](C(=O)NCCCN(C)C)NC3=O` (some centres not stated), for which, in [2], the fraction unbound was 0.07.

Compound `CCCCCCCCC(O)C[S+](C)CCCNCc1c(O)cc2c(c1O)-c1cc(ccc1O)[C@H]1NC(=O)[C@@H]3NC(=O)[C@H](CC(N)=O)NC(=O)[C@H](NC(=O)[C@@H](CC(C)C)NC)[C@H](O)c4ccc(c(Cl)c4)Oc4cc3cc(c4O[C@@H]3O[C@H](CO)[C@@H](O)[C@H](O)[C@H]3O[C@H]3C[C@](C)(N)[C@H](O)[C@H](C)O3)Oc3ccc(cc3Cl)[C@@H](O)[C@H](NC1=O)C(=O)N[C@@H]2C(=O)O.O=C([O-])C(F)(F)F` (some centres not stated) returned an Efficacy in the series on Staphylococcus aureus [13] of 53.3%. For the same compound, the MIC is more than 128 µg/mL in the series on Klebsiella pneumoniae; 1 µg/mL in the series on Enterococcus faecium [4]; 32 µg/mL with Escherichia coli; 2 µg/mL in the series on Enterococcus faecium [6]; more than 128 µg/mL in the series on Pseudomonas aeruginosa; not above 0.063 µg/mL in the series with Enterococcus faecium [8]. Also, the MIC against Staphylococcus aureus [11] was 0.25 µg/mL; against Enterococcus faecium [12], 8 µg/mL; in the series with Staphylococcus aureus [20], not above 0.063 µg/mL. In addition, in [14], the half-life was 1.13 h. Besides, in series [15], the AUC(0-t) was determined as 7050 ng·h/mL. For the same compound, the clearance in series [16] came to 12 mL/min/kg. In series [17], this compound displayed an AUC(0-inf) of 7080 ng·h/mL. Moreover, the MRT inf in [18] came out at 0.931 h. In addition, the survival at 7 mg/kg was found to be 80% in the series with Staphylococcus aureus [19] and 86.7% in the series on Staphylococcus aureus [22]. Besides, the Vd in [21] worked out at 0.672 L/kg.

Consider `CN[C@H](CC(C)C)C(=O)N[C@H]1C(=O)N[C@@H](CC(N)=O)C(=O)N[C@H]2C(=O)N[C@H]3C(=O)N[C@H](C(=O)N[C@H](C(=O)NCCC[S+](C)CC(O)COc4ccc(Cl)cc4)c4cc(O)cc(O)c4-c4cc3ccc4O)[C@H](O)c3ccc(c(Cl)c3)Oc3cc2cc(c3O[C@@H]2O[C@H](CO)[C@@H](O)[C@H](O)[C@H]2O[C@H]2C[C@](C)(N)[C@H](O)[C@H](C)O2)Oc2ccc(cc2Cl)[C@H]1O.O=C([O-])C(F)(F)F` (some centres not stated), for which the MIC against Klebsiella pneumoniae was more than 128 µg/mL; against Acinetobacter baumannii [1] it was 32 µg/mL; with Enterococcus faecium [4] it was 4 µg/mL; against Acinetobacter baumannii [5], 128 µg/mL; against Escherichia coli, 16 µg/mL; against Enterococcus faecium [6] it was 8 µg/mL. Also, the MIC in the series with Pseudomonas aeruginosa was 128 µg/mL; with Enterococcus faecium [8], 8 µg/mL; with Staphylococcus aureus [11] it was 1 µg/mL; with Enterococcus faecium [12], 16 µg/mL; in the series with Staphylococcus aureus [20], not above 0.063 µg/mL.
